# Experimental data taken from patent US20260365682A1, “MODULATORS OF TNF-ALPHA ACTIVITY” (Forward Therapeutics, Inc., priority 2022, published 2026).
# Molecular target: T1, TNF-α (Homo sapiens, UniProt P01375)
# T1 construct: purchased R&D 210-TA-020/CF
# Experiment: TNF-α Induced HEK Blue Cellular Assay (secreted alkaline phosphatase expression, QUANTI-Blue)
# Type: cell-based
# Conditions: HEK Blue TNFα reporter cells; TNF-α 100 μg/ml; 24 hrs at 37° C.; inhibition of secreted alkaline phosphatase; read-out: IC50 value
# Outline: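 HEK Blue TNFα reporter cells (10,000/well) in DMEM with 10% FBS received compound ([…] to 0.5 nM final) and TNF-α at […] final for 24 h at 37° C. Secreted alkaline phosphatase read with QUANTI-Blue at 620 nm. IC50 came from a 4-parameter logistic fit after normalising to unstimulated and stimulated DMSO controls.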
# T1 sequence (P01375 77-233 limits assumed): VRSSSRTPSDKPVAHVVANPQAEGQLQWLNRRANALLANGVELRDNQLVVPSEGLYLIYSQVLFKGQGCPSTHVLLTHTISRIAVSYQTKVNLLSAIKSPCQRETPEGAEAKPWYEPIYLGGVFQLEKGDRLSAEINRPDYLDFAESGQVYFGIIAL
row,IC50,Structure (SMILES)
1,10000 to 30000 nM,"[2H]C([2H])([2H])N1C(=O)c2cccc(OC(F)F)c2[C@H]2C[C@@H]1c1nc3ccc(C#CCCNC(=O)C(C)(C)O)cc3n12 [Example 213, N-(4-((7R,14R)-1-(difluoromethoxy)-6-(methyl-d3)-5-oxo-5,6,7,14-tetrahydro-7,14-methanobenzo[f]benzo[4,5]imidazo[1,2-a][1,4]diazocin-11-yl)but-3-yn-1-yl)-2-hydroxy-2-methylpropanamide]"
2,< 100 nM,"[2H]C([2H])([2H])N1C(=O)c2cccc(OC(F)F)c2[C@H]2C[C@@H]1c1nc3ccc(C#CC4CCN(C)C4)cc3n12 (stereo partly drawn) [Example 76, (7R,14R)-1-(difluoromethoxy)-6-(methyl-d3)-11-((1-methylpyrrolidin-3-yl)ethynyl)-6,7-dihydro-7,14-methanobenzo[f]benzo[4,5]imidazo[1,2-a][1,4]diazocin-5(14H)-one]"
3,< 100 nM,"[2H]C([2H])([2H])N1C(=O)c2cccc(OC(F)F)c2[C@H]2C[C@@H]1c1nc3ccc(C#CC4CN(C(C)C(F)F)C4)cc3n12 (stereo partly drawn) [Example 238, (7R,14R)-1-(difluoromethoxy)-11-((1-(1,1-difluoropropan-2-yl)azetidin-3-yl)ethynyl)-6-(methyl-d3)-6,7-dihydro-7,14-methanobenzo[f]benzo[4,5]imidazo[1,2-a][1,4]diazocin-5(14H)-one]"
4,< 100 nM,"[2H]C([2H])([2H])N1C(=O)c2cccc(OC(F)F)c2[C@H]2C[C@@H]1c1nc3ccc(C#CC4COC4)cc3n12 [Example 80, (7R,14R)-1-(difluoromethoxy)-6-(methyl-d3)-11-(oxetan-3-ylethynyl)-6,7-dihydro-7,14-methanobenzo[f]benzo[4,5]imidazo[1,2-a][1,4]diazocin-5(14H)-one]"
5,< 100 nM,"[2H]C([2H])([2H])N1C(=O)c2cccc(OC(F)F)c2[C@H]2C[C@@H]1c1nc3ccc(C#Cc4ncns4)cc3n12 [Example 45, (7R,14R)-11-((1,2,4-thiadiazol-5-yl)ethynyl)-1-(difluoromethoxy)-6-(methyl-d3)-6,7-dihydro-7,14-methanobenzo[f]benzo[4,5]imidazo[1,2-a][1,4]diazocin-5(14H)-one]"
6,< 100 nM,"[2H]C([2H])([2H])N1C(=O)c2cccc(OC(F)F)c2[C@H]2C[C@@H]1c1nc3ccc(C#CCNC(=O)C4CC4)cc3n12 [Example 171, N-(3-((7R,14R)-1-(difluoromethoxy)-6-(methyl-d3)-5-oxo-5,6,7,14-tetrahydro-7,14-methanobenzo[f]benzo[4,5]imidazo[1,2-a][1,4]diazocin-11-yl)prop-2-yn-1-yl)cyclopropanecarboxamide]"
7,100 to 1000 nM,"[2H]C([2H])([2H])N1C(=O)c2cccc(OC(F)F)c2[C@H]2C[C@@H]1c1nc3ccc(C#CCC4(O)COC4)cc3n12 [Example 81, (7R,14R)-1-(difluoromethoxy)-11-(3-(3-hydroxyoxetan-3-yl)prop-1-yn-1-yl)-6-(methyl-d3)-6,7-dihydro-7,14-methanobenzo[f]benzo[4,5]imidazo[1,2-a][1,4]diazocin-5(14H)-one]"
8,10000 to 30000 nM,"[2H]C([2H])([2H])N1C(=O)c2cccc(OC(F)F)c2[C@H]2C[C@@H]1c1nc3ccc(C#Cc4cccnn4)cc3n12 [Example 33, (7R,14R)-1-(difluoromethoxy)-6-(methyl-d3)-11-(pyridazin-3-ylethynyl)-6,7-dihydro-7,14-methanobenzo[f]benzo[4,5]imidazo[1,2-a][1,4]diazocin-5(14H)-one]"
9,< 100 nM,"[2H]C([2H])([2H])N1C(=O)c2cccc(OC(F)F)c2[C@H]2C[C@@H]1c1nc3ccc(C#Cc4cncn4C)cc3n12 [Example 17, (7R,14R)-1-(difluoromethoxy)-6-(methyl-d3)-11-((1-methyl-1H-imidazol-5-yl)ethynyl)-6,7-dihydro-7,14-methanobenzo[f]benzo[4,5]imidazo[1,2-a][1,4]diazocin-5(14H)-one]"
10,< 100 nM,"O=C1N[C@@H]2C[C@H](c3c(OC(F)F)cccc31)n1c2nc2ccc(C#Cc3cnn(CCO)c3)cc21 [Example 6, (1R,11R)-18-(difluoromethoxy)-5-{2-[1-(2-hydroxyethyl)pyrazol-4-yl]ethynyl}-2,9,12-triazapentacyclo[9.8.1.0^{2,10}.0^{3,8}.0^{14,19}]icosa-3(8),4,6,9,14(19),15,17-heptaen-13-one]"
11,< 100 nM,"[2H]C([2H])([2H])N1C(=O)c2cccc(OC(F)F)c2[C@H]2C[C@@H]1c1nc3ccc(C#CC4CN(S(C)(=O)=O)C4)cc3n12 [Example 121, (7R,14R)-1-(difluoromethoxy)-6-(methyl-d3)-11-((1-(methylsulfonyl)azetidin-3-yl)ethynyl)-6,7-dihydro-7,14-methanobenzo[f]benzo[4,5]imidazo[1,2-a][1,4]diazocin-5(14H)-one]"
12,< 100 nM,"[2H]C([2H])([2H])N1C(=O)c2cccc(OC(F)F)c2[C@H]2C[C@@H]1c1nc3ccc(C#CC4CCCNC4)cc3n12 (stereo partly drawn) [Example 60, (7R,14R)-1-(difluoromethoxy)-6-(methyl-d3)-11-(piperidin-3-ylethynyl)-6,7-dihydro-7,14-methanobenzo[f]benzo[4,5]imidazo[1,2-a][1,4]diazocin-5(14H)-one]"
13,< 100 nM,"[2H]C([2H])([2H])N1C(=O)c2cccc(OC(F)F)c2[C@H]2C[C@@H]1c1nc3ccc(C#Cc4nnc(NC(C)=O)s4)cc3n12 [Example 260, N-(5-(((7R,14R)-1-(difluoromethoxy)-6-(methyl-d3)-5-oxo-5,6,7,14-tetrahydro-7,14-methanobenzo[f]benzo[4,5]imidazo[1,2-a][1,4]diazocin-11-yl)ethynyl)-1,3,4-thiadiazol-2-yl)acetamide]"
14,< 100 nM,"[2H]C([2H])([2H])N1C(=O)c2cccc(OC(F)F)c2[C@H]2C[C@@H]1c1nc3ccc(C#CCCN4CCOCC4)cc3n12 [Example 101, (7R,14R)-1-(difluoromethoxy)-6-(methyl-d3)-11-(4-morpholinobut-1-yn-1-yl)-6,7-dihydro-7,14-methanobenzo[f]benzo[4,5]imidazo[1,2-a][1,4]diazocin-5(14H)-one]"
15,< 100 nM,"[2H]C([2H])([2H])N1C(=O)c2cccc(OC(F)F)c2[C@H]2C[C@@H]1c1nc3ccc(C#C[C@@H](C)CO)cc3n12 [Example 128, (7R,14R)-1-(difluoromethoxy)-11-((R)-4-hydroxy-3-methylbut-1-yn-1-yl)-6-(methyl-d3)-6,7-dihydro-7,14-methanobenzo[f]benzo[4,5]imidazo[1,2-a][1,4]diazocin-5(14H)-one]"
16,< 100 nM,"O=C1N[C@@H]2C[C@H](c3c(OC(F)F)cccc31)n1c2nc2ccc(C#Cc3cncnc3)cc21 [Example 3, (1R,11R)-18-(difluoromethoxy)-5-[2-(pyrimidin-5-yl)ethynyl]-2,9,12-triazapentacyclo[9.8.1.0^∧{2,10}.0^∧{3,8}. 0^∧{14,19}]icosa-3(8),4,6,9,14(19),15,17-heptaen-13-one]"
17,10000 to 30000 nM,"[2H]C([2H])([2H])N1C(=O)c2cccc(OC(F)F)c2[C@H]2C[C@@H]1c1nc3ccc(C#CCNCC)cc3n12 [Example 65, (7R,14R)-1-(difluoromethoxy)-11-(3-(ethylamino)prop-1-yn-1-yl)-6-(methyl-d3)-6,7-dihydro-7,14-methanobenzo[f]benzo[4,5]imidazo[1,2-a][1,4]diazocin-5(14H)-one]"
18,10000 to 30000 nM,"[2H]C([2H])([2H])N1C(=O)c2cccc(OC(F)F)c2[C@H]2C[C@@H]1c1nc3ccc(C#C[C@H]4CCCN4)cc3n12 [Example 58, (7R,14R)-1-(difluoromethoxy)-6-(methyl-d3)-11-(((R)-pyrrolidin-2-yl)ethynyl)-6,7-dihydro-7,14-methanobenzo[f]benzo[4,5]imidazo[1,2-a][1,4]diazocin-5(14H)-one]"
19,< 100 nM,"[2H]C([2H])([2H])N1C(=O)c2cccc(OC(F)F)c2[C@H]2C[C@@H]1c1nc3ccc(C#CCN4CC(F)(F)C4)cc3n12 [Example 231, (7R,14R)-11-(3-(3,3-difluoroazetidin-1-yl)prop-1-yn-1-yl)-1-(difluoromethoxy)-6-(methyl-d3)-6,7-dihydro-7,14-methanobenzo[f]benzo[4,5]imidazo[1,2-a][1,4]diazocin-5(14H)-one]"
20,10000 to 30000 nM,"[2H]C([2H])([2H])N1C(=O)c2cccc(OC(F)F)c2[C@H]2C[C@@H]1c1nc3ccc(C#CCCNC(=O)C(C)(C)C)cc3n12 [Example 215, N-(4-((7R,14R)-1-(difluoromethoxy)-6-(methyl-d3)-5-oxo-5,6,7,14-tetrahydro-7,14-methanobenzo[f]benzo[4,5]imidazo[1,2-a][1,4]diazocin-11-yl)but-3-yn-1-yl)pivalamide]"
21,100 to 1000 nM,"[2H]C([2H])([2H])N1C(=O)c2cccc(OC(F)F)c2[C@H]2C[C@@H]1c1nc3ccc(C#CC(O)C(F)(F)F)cc3n12 (single isomer, unassigned) [Example 200, (7R,14R)-1-(difluoromethoxy)-6-(methyl-d3)-11-((S or R)-4,4,4-trifluoro-3-hydroxybut-1-yn-1-yl)-6,7-dihydro-7,14-methanobenzo[f]benzo[4,5]imidazo[1,2-a][1,4]diazocin-5(14H)-one]"
22,< 100 nM,"[2H]C([2H])([2H])N1C(=O)c2cccc(OC(F)F)c2[C@H]2C[C@@H]1c1nc3ccc(C#Cc4cnc(NC(C)=O)nc4)cc3n12 [Example 259, N-(5-(((7R,14R)-1-(difluoromethoxy)-6-(methyl-d3)-5-oxo-5,6,7,14-tetrahydro-7,14-methanobenzo[f]benzo[4,5]imidazo[1,2-a][1,4]diazocin-11-yl)ethynyl)pyrimidin-2-yl)acetamide]"

# Same assay, conditions: IC50 value, HEK Blue TNFα reporter cells; TNF-α 100 μg/ml; 24 hrs at 37° C.; inhibition of secreted alkaline phosphatase
row,IC50,Structure (SMILES)
1,100 to 1000 nM,"[2H]C([2H])([2H])N1C(=O)c2cccc(OC(F)F)c2[C@H]2C[C@@H]1c1nc3ccc(C#CC(=O)NCC(F)(F)F)cc3n12 [Example 89, 3-((7R,14R)-1-(difluoromethoxy)-6-(methyl-d3)-5-oxo-5,6,7,14-tetrahydro-7,14-methanobenzo[f]benzo[4,5]imidazo[1,2-a][1,4]diazocin-11-yl)-N-(2,2,2-trifluoroethyl)propiolamide]"
